Test results: ChEMBL document CHEMBL1154699, “Synthesis of aryl phosphates based on pyrimidine and triazine scaffolds” (Eur J Med Chem, 2010)
The source made the active and inactive calls. The rule behind the calls is not given here.

How the values were obtained:
[1] = target: T1, Growth factor receptor-bound protein 2 (Homo sapiens, UniProt P62993); experiment: Displacement of biotin-Ahx-PSpYVNVQN peptide from GST fused Grb2 SH2 domain by ELISA
[2] = target: T1, Growth factor receptor-bound protein 2; experiment: Inhibition of Grb2 by ELISA
Target sequence in this assay (P62993 whole entry, the tested form may be a part): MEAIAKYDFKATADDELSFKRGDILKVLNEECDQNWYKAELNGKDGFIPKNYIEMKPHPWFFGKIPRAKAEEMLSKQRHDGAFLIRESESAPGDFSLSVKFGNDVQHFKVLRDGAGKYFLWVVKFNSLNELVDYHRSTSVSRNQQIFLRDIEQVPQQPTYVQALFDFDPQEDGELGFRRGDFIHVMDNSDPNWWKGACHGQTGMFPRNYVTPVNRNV

SMILES | Activity [1] | also measured
NC(=O)CNc1nc(Nc2ccc(OP(=O)(O)O)cc2)nc(-c2cccc(Oc3ccc(OP(=O)(O)O)cc3)c2)n1 | inactive | 
Cc1ccc(OC(C)(C)C(=O)N[C@@H](Cc2ccc(OP(=O)(O)O)cc2)C(=O)N[C@@](C)(Cc2ccc(OP(=O)(O)O)cc2)C(=O)N[C@@H](CC(N)=O)C(N)=O)c(/N=N/c2ccccc2)c1 |  | IC50 [2]: 0.011 µM
NC(=O)CNc1nc(Nc2ccc(OP(=O)(O)O)cc2)nc(-c2ccccc2Oc2ccc(OP(=O)(O)O)cc2)n1 |  | IC50 [1]: 265 µM
Cc1cc(-c2cccc(Oc3ccc(OP(=O)(O)O)cc3)c2)nc(Nc2ccc(-c3nn[nH]n3)cc2)n1 | inactive | 
